{"source": "ChEMBL document CHEMBL5223107", "about": "(Bioorg Med Chem Lett, 2022)", "key": {"[1]": {"target": "T1, Androgen receptor (Homo sapiens) (UniProt P10275)", "T1 sequence (whole entry)": "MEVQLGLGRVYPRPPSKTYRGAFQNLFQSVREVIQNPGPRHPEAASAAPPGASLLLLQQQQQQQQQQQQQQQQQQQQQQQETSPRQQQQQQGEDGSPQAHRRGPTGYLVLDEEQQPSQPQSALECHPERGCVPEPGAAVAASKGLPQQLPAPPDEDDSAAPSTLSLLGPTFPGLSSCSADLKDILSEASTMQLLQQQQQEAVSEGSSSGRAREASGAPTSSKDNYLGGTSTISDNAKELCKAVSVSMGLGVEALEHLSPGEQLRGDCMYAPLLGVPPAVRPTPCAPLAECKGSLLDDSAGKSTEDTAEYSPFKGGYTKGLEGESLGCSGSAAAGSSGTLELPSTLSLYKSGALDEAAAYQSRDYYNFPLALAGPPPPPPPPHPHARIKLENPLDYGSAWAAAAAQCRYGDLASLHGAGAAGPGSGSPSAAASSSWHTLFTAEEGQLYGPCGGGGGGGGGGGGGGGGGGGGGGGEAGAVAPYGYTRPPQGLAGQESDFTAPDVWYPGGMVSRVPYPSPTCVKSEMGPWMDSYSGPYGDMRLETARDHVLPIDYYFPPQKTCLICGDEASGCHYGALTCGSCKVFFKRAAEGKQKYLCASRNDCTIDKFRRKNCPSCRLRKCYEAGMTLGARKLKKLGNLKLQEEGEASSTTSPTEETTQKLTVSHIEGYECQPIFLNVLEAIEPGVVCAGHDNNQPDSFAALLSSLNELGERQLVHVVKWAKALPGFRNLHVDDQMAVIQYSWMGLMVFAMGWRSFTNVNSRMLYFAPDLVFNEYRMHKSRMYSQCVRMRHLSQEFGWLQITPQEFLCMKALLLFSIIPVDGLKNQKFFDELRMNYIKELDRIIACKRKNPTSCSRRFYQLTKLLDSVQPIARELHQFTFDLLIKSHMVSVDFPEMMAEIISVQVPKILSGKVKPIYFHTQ", "test": "Inhibition of androgen receptor in human 22Rv1 cells assessed as reduction in DHT-induced PSA level at 1 to 5 uM incubated for 24 hrs by western blot analysis", "type": "cell-based", "details": "dose 1-5 µM"}, "[2]": {"target": "T1, Androgen receptor (Homo sapiens)", "test": "Inhibition of androgen receptor in human 22Rv1 cells assessed as reduction in DHT-induced AR expression level at 1 to 5 uM incubated for 24 hrs by western blot analysis", "type": "cell-based", "details": "dose 1-5 µM"}, "[3]": {"target": "T1, Androgen receptor (Homo sapiens)", "test": "Inhibition of androgen receptor in human 22Rv1 cells assessed as reduction in BCL-2 expression level at 1 to 10 uM incubated for 24 hrs by western blot analysis", "type": "cell-based", "details": "dose 1-10 µM"}, "[4]": {"target": "T1, Androgen receptor (Homo sapiens)", "test": "Inhibition of androgen receptor in human LNCaP cells assessed as reduction in DHT-induced AR mRNA expression level at 1 to 5 uM incubated for 24 hrs by qRT-PCR analysis", "type": "cell-based", "details": "dose 1-5 µM"}, "[5]": {"target": "T1, Androgen receptor (Homo sapiens)", "test": "Inhibition of androgen receptor in human 22Rv1 cells assessed as reduction in DHT-induced PSA mRNA expression level at 1 to 5 uM incubated for 24 hrs by qRT-PCR analysis", "type": "cell-based", "details": "dose 1-5 µM"}, "[6]": {"target": "T1, Androgen receptor (Homo sapiens)", "test": "Inhibition of androgen receptor in human 22Rv1 cells assessed as reduction in […] expression level at 1 to 10 uM incubated for 24 hrs by western blot analysis", "type": "cell-based", "details": "dose 1-10 µM"}, "[7]": {"target": "T1, Androgen receptor (Homo sapiens)", "test": "Inhibition of androgen receptor in human LNCaP cells assessed as reduction in DHT-induced PSA level at 1 to 5 uM incubated for 24 hrs by western blot analysis", "type": "cell-based", "details": "dose 1-5 µM"}, "[8]": {"target": "T1, Androgen receptor (Homo sapiens)", "test": "Inhibition of androgen receptor in human LNCaP cells assessed as reduction in DHT-induced PSA mRNA expression level at 1 to 5 uM incubated for 24 hrs by qRT-PCR analysis", "type": "cell-based", "details": "dose 1-5 µM"}, "CWR22R": {"tested_on": "CWR22R", "test": "Antiproliferative activity against human 22Rv1 cells assessed as cell growth inhibition incubated for 72 hrs by MTT assay", "type": "functional, cell-based", "details": "22Rv1, 72 h"}, "[9]": {"target": "T1, Androgen receptor (Homo sapiens)", "test": "Inhibition of androgen receptor in human PC-3 cells assessed as inhibition of AR transcription activity by dual-luciferase reporter assays", "type": "cell-based"}, "LNCaP": {"tested_on": "LNCaP", "test": "Antiproliferative activity against human LNCaP cells assessed as cell growth inhibition incubated for 72 hrs by MTT assay", "type": "functional, cell-based"}, "[10]": {"target": "T1, Androgen receptor (Homo sapiens)", "test": "Inhibition of androgen receptor in human LNCaP cells assessed as reduction in DHT-induced AR expression level at 1 to 5 uM incubated for 24 hrs by western blot analysis", "type": "cell-based", "details": "dose 1-5 µM"}, "PC-3": {"tested_on": "PC-3", "test": "Antiproliferative activity against human PC-3 cells assessed as cell growth inhibition incubated for 72 hrs by MTT assay", "type": "functional, cell-based", "details": "PC-3, 72 h"}, "[11]": {"target": "T1, Androgen receptor (Homo sapiens)", "test": "Inhibition of androgen receptor in human 22Rv1 cells assessed as reduction in DHT-induced AR mRNA expression level at 1 to 5 uM incubated for 24 hrs by qRT-PCR analysis", "type": "cell-based", "details": "dose 1-5 µM"}}, "note": "Calls of active or inactive are those of the source. No cut-off for these calls is given here."}
{"smiles": "CC1=CC2C(C(C)C)=C(O)C(=O)/C(=C\\NCCS(=O)(=O)O)C2C(O)=C1c1c(C)cc2c(c1O)/C(=C/NCCS(=O)(=O)O)C(=O)C(O)=C2C(C)C", "note": "(centres undefined)", "values": [{"measurement": "inhibition", "setting": "[1]", "result": "Active"}, {"measurement": "inhibition", "setting": "[2]", "result": "Active"}, {"measurement": "inhibition", "setting": "[3]", "result": "Active"}, {"measurement": "inhibition", "setting": "[4]", "result": "Dose-Dependent Effect"}, {"measurement": "inhibition", "setting": "[5]", "result": "Dose-Dependent Effect"}, {"measurement": "inhibition", "setting": "[6]", "result": "Active"}, {"measurement": "inhibition", "setting": "[7]", "result": "Dose-Dependent Effect"}, {"measurement": "inhibition", "setting": "[8]", "result": "Dose-Dependent Effect"}, {"measurement": "IC50", "setting": "CWR22R", "result": 910, "unit": "nM"}, {"measurement": "inhibition", "setting": "[9]", "result": "Dose-Dependent Effect"}, {"measurement": "IC50", "setting": "LNCaP", "result": 350, "unit": "nM"}, {"measurement": "inhibition", "setting": "[10]", "result": "Dose-Dependent Effect"}, {"measurement": "IC50", "setting": "PC-3", "result": 3160, "unit": "nM"}, {"measurement": "inhibition", "setting": "[11]", "result": "Dose-Dependent Effect"}]}
